Test results taken from ChEMBL document CHEMBL6134781, “In vitro identification of oridonin hybrids as potential anti-TNBC agents inducing cell cycle arrest and apoptosis by regulation of p21, γH2AX and cleaved PARP” (RSC Med Chem, 2024).
pIC50: −log10 of the molar value. The source made the active and inactive calls. The rule behind the calls is not given here.

Key:
MDA-MB-231 [1] = assay: Cytotoxicity against human MDA-MB-231 cells assessed as inhibition of cell viability incubated for 72 hrs by SRB assay; assay type: functional, cell-based; conditions: MDA-MB-231, 72 h
HCC1806 [2] = assay: Cytotoxicity against human HCC1806 cells assessed as inhibition of cell viability incubated for 72 hrs by SRB assay; assay type: functional, cell-based; conditions: HCC1806, 72 h
MDA-MB-468 [3] = assay: Cytotoxicity against human MDA-MB-468 cells assessed as inhibition of cell viability incubated for 72 hrs by SRB assay; assay type: functional, cell-based; conditions: MDA-MB-468, 72 h
HCC1937 [4] = assay: Cytotoxicity against human HCC1937 cells assessed as inhibition of cell viability incubated for 72 hrs by SRB assay; assay type: functional, cell-based; conditions: HCC1937, 72 h
HCC1806 [5] = assay: Induction of cell cycle arrest in human HCC1806 cells assessed as accumulation at G2/M phase incubated for 16 hrs by PI staining based flow cytometry; assay type: functional; conditions: dose 1-3 µM
MDA-MB-468 [6] = assay: Induction of cell cycle arrest in human MDA-MB-468 cells assessed as accumulation at G2/M phase incubated for 16 hrs by PI staining based flow cytometry; assay type: functional; conditions: dose 1-3 µM
MDA-MB-231 [7] = assay: Induction of cell cycle arrest in human MDA-MB-231 cells assessed as decrease in accumulation at S phase incubated for 16 hrs by PI staining based flow cytometry; assay type: functional; conditions: dose 1-3 µM
HCC1937 [8] = assay: Effect on cell cycle distribution in human HCC1937 cells at 1 to 3 uM incubated for 16 hrs by PI staining based flow cytometry; assay type: functional; conditions: dose 1-3 µM
MDA-MB-231 [9] = assay: Induction of apoptosis in human MDA-MB-231 cells assessed as early apoptotic cells at 1 uM incubated for 16 hrs by Annexin V-FITC/PI staining based flow cytometry (reference value: 1.94 %); assay type: functional
MDA-MB-231 [10] = assay: Induction of apoptosis in human MDA-MB-231 cells assessed as late apoptotic cells at 1 uM incubated for 16 hrs by Annexin V-FITC/PI staining based flow cytometry (reference value: 4.62 %); assay type: functional
MDA-MB-231 [11] = assay: Induction of apoptosis in human MDA-MB-231 cells assessed as necrotic cells at 1 uM incubated for 16 hrs by Annexin V-FITC/PI staining based flow cytometry (reference value: 3.89 %); assay type: functional
MDA-MB-231 [12] = assay: Induction of apoptosis in human MDA-MB-231 cells assessed as late apoptotic cells at 3 uM incubated for 16 hrs by Annexin V-FITC/PI staining based flow cytometry (reference value: 4.62 %); assay type: functional
MDA-MB-231 [13] = assay: Induction of apoptosis in human MDA-MB-231 cells assessed as necrotic cells at 3 uM incubated for 16 hrs by Annexin V-FITC/PI staining based flow cytometry (reference value: 3.89 %); assay type: functional
MDA-MB-468 [14] = assay: Induction of apoptosis in human MDA-MB-468 cells assessed as late apoptotic cells at 1 uM incubated for 24 hrs by Annexin V-FITC/PI staining based flow cytometry (reference value: 3.84 %); assay type: functional
MDA-MB-468 [15] = assay: Induction of apoptosis in human MDA-MB-468 cells assessed as necrotic cells at 1 uM incubated for 24 hrs by Annexin V-FITC/PI staining based flow cytometry (reference value: 4.11 %); assay type: functional
MDA-MB-468 [16] = assay: Induction of apoptosis in human MDA-MB-468 cells assessed as early apoptotic cells at 3 uM incubated for 24 hrs by Annexin V-FITC/PI staining based flow cytometry (reference value: 3.17 %); assay type: functional
MDA-MB-468 [17] = assay: Induction of apoptosis in human MDA-MB-468 cells assessed as necrotic cells at 3 uM incubated for 24 hrs by Annexin V-FITC/PI staining based flow cytometry (reference value: 4.11 %); assay type: functional
HCC1937 [18] = assay: Induction of apoptosis in human HCC1937 cells assessed as viable cells at 1 uM incubated for 24 hrs by Annexin V-FITC/PI staining based flow cytometry (reference value: 97.2 %); assay type: functional; conditions: read-out: Activity
HCC1937 [19] = assay: Induction of apoptosis in human HCC1937 cells assessed as early apoptotic cells at 1 uM incubated for 24 hrs by Annexin V-FITC/PI staining based flow cytometry (reference value: 0.74 %); assay type: functional
HCC1937 [20] = assay: Induction of apoptosis in human HCC1937 cells assessed as late apoptotic cells at 1 uM incubated for 24 hrs by Annexin V-FITC/PI staining based flow cytometry (reference value: 1.45 %); assay type: functional
HCC1937 [21] = assay: Induction of apoptosis in human HCC1937 cells assessed as viable cells at 3 uM incubated for 24 hrs by Annexin V-FITC/PI staining based flow cytometry (reference value: 97.2 %); assay type: functional; conditions: read-out: Activity
HCC1937 [22] = assay: Induction of apoptosis in human HCC1937 cells assessed as early apoptotic cells at 3 uM incubated for 24 hrs by Annexin V-FITC/PI staining based flow cytometry (reference value: 0.74 %); assay type: functional
HCC1937 [23] = assay: Induction of apoptosis in human HCC1937 cells assessed as late apoptotic cells at 3 uM incubated for 24 hrs by Annexin V-FITC/PI staining based flow cytometry (reference value: 1.45 %); assay type: functional
HCC1937 [24] = assay: Induction of apoptosis in human HCC1937 cells assessed as necrotic cells at 3 uM incubated for 24 hrs by Annexin V-FITC/PI staining based flow cytometry (reference value: 0.58 %); assay type: functional
HCC1806 [25] = assay: Induction of apoptosis in human HCC1806 cells assessed as viable cells at 1 uM incubated for 24 hrs by Annexin V-FITC/PI staining based flow cytometry (reference value: 95.4 %); assay type: functional; conditions: read-out: Activity
HCC1806 [26] = assay: Induction of apoptosis in human HCC1806 cells assessed as late apoptotic cells at 1 uM incubated for 24 hrs by Annexin V-FITC/PI staining based flow cytometry (reference value: 1.48 %); assay type: functional
HCC1806 [27] = assay: Induction of apoptosis in human HCC1806 cells assessed as late apoptotic cells at 3 uM incubated for 24 hrs by Annexin V-FITC/PI staining based flow cytometry (reference value: 1.48 %); assay type: functional
HCC1806 [28] = assay: Induction of apoptosis in human HCC1806 cells assessed as necrotic cells at 3 uM incubated for 24 hrs by Annexin V-FITC/PI staining based flow cytometry (reference value: 0.049 %); assay type: functional
MDA-MB-468 [29] = assay: Induction of apoptosis in human MDA-MB-468 cells assessed as increase in cleaved PARP-1 level incubated for 24 hrs by Western blot analysis; assay type: functional, cell-based; conditions: dose 1-3 µM
HCC1937 [30] = assay: Induction of apoptosis in human HCC1937 cells assessed as increase in cleaved PARP-1 level incubated for 24 hrs by Western blot analysis; assay type: functional, cell-based; conditions: dose 1-3 µM
MDA-MB-231 [31] = assay: Induction of cell cycle arrest in human MDA-MB-231 cells assessed as increase in p21 level incubated for 16 hrs by Western blot analysis; assay type: functional, cell-based; conditions: dose 1-3 µM
HCC1806 [32] = assay: Induction of cell cycle arrest in human HCC1806 cells assessed as increase in p21 level incubated for 16 hrs by Western blot analysis; assay type: functional, cell-based; conditions: dose 1-3 µM
HCC1937 [33] = assay: Induction of cell cycle arrest in human HCC1937 cells assessed as increase in p21 level incubated for 16 hrs by Western blot analysis; assay type: functional, cell-based; conditions: dose 1-3 µM
MDA-MB-231 [34] = assay: Induction of DNA damage in human MDA-MB-231 cells assessed as increase in gamma-H2AX level incubated for 16 hrs by Western blot analysis; assay type: functional, cell-based; conditions: dose 1-3 µM
HCC1806 [35] = assay: Induction of DNA damage in human HCC1806 cells assessed as increase in gamma-H2AX level incubated for 24 hrs by Western blot analysis; assay type: functional, cell-based; conditions: dose 1-3 µM
[36] = Stability in human plasma assessed as half life at 100 uM by LC-MS/MS analysis; assay type: ADME, cell-free

SMILES: C=C1C(=O)[C@]23[C@H](OC(=O)C45CC6CC(CC(C6)C4)C5)[C@H]1CC[C@H]2[C@@]12CO[C@]3(O)[C@@H](O)[C@@H]1C(C)(C)CC[C@@H]2O
- pIC50 (MDA-MB-231 [1]): 6.40
- pIC50 (HCC1806 [2]): 5.85
- pIC50 (MDA-MB-468 [3]): 6.39
- pIC50 (HCC1937 [4]): 6.21
- Activity (HCC1806 [5]): Dose-dependent-effect
- Activity (MDA-MB-468 [6]): Dose-dependent-effect
- Activity (MDA-MB-231 [7]): Dose-dependent-effect
- Activity (HCC1937 [8]): Active
- Activity (MDA-MB-231 [9]): 4.31%
- Activity (MDA-MB-231 [10]): 1.92%
- Activity (MDA-MB-231 [11]): 0.32%
- Activity (MDA-MB-231 [12]): 20.4%
- Activity (MDA-MB-231 [13]): 4.46%
- Activity (MDA-MB-468 [14]): 7.11%
- Activity (MDA-MB-468 [15]): 0.22%
- Activity (MDA-MB-468 [16]): 30%
- Activity (MDA-MB-468 [17]): 0.44%
- viability at 1 µM (HCC1937 [18]): 96.1%
- Activity (HCC1937 [19]): 1.23%
- Activity (HCC1937 [20]): 2.34%
- viability at 3 µM (HCC1937 [21]): 71.1%
- Activity (HCC1937 [22]): 4.23%
- Activity (HCC1937 [23]): 24.1%
- Activity (HCC1937 [24]): 0.61%
- viability at 1 µM (HCC1806 [25]): 92.2%
- Activity (HCC1806 [26]): 2.8%
- Activity (HCC1806 [27]): 14.2%
- Activity (HCC1806 [28]): 0.091%
- Activity (MDA-MB-468 [29]): Dose-dependent-effect
- Activity (HCC1937 [30]): Dose-dependent-effect
- Activity (MDA-MB-231 [31]): Dose-dependent-effect
- Activity (HCC1806 [32]): Dose-dependent-effect
- Activity (HCC1937 [33]): Dose-dependent-effect
- Activity (MDA-MB-231 [34]): Dose-dependent-effect
- Activity (HCC1806 [35]): Dose-dependent-effect
- half-life at 100 µM [36]: 144 min
